Experimental data reported in article PMC4230943, “Mimicking Hypoxia to Treat Anemia: HIF-Stabilizer BAY 85-3934 (Molidustat) Stimulates Erythropoietin Production without Hypertensive Effects” (PLoS ONE, 2014).

Experiments:
male Wistar rats [1] = experiment: Subtotal nephrectomy (remnant kidney) model; format: in vivo, rat
Protocol: In the chronic disease models of subtotal nephrectomy and inflammation, the sodium salt of BAY 85-3934 was used. For administration in drinking water, BAY 85-3934 sodium and enalapril were prepared as 100 mM sodium bicarbonate saline solutions (adjusted to pH 7) at final concentrations of 80 ppm and 30 ppm, respectively. Sham and vehicle control animals received saline only. Unless otherwise stated, chemicals and reagents were purchased from Sigma-Aldrich.
Subtotal nephrectomy was conducted in adult male Wistar rats. Body weight, blood pressure, hematocrit, and blood cell counts were determined at baseline and thereafter at weekly intervals. At baseline, rats were randomly distributed into two groups: those that underwent subtotal nephrectomy and those that underwent a sham procedure without reduction of renal mass. Surgery was performed in deeply anesthetized (2% isoflurane in air) animals. Kidneys were accessed via a dorsolateral incision of the body wall of about 2 cm in length. The right kidney was removed after ligature of the renal peduncle, and subsequently the upper and lower pole of the left kidney were removed, followed by careful hemostasis. Approximately one third of the initial kidney mass remained (removed tissue was weighed to check this was achieved). In the sham-treated animals, both kidneys were exposed before closure of the wound. Three weeks after surgery, animals were allocated to each group in equal proportions with respect to systolic blood pressure and hematocrit values. For 5 weeks, animals were treated twice weekly with rhEPO (100 IU/kg), or once daily with […] (2.5 mg/kg or 5.0 mg/kg) or vehicle. In experiments using enalapril or a combination of BAY 85-3934 sodium and enalapril, study drugs were administered with drinking water. BAY 85-3934 sodium and enalapril were administered in drinking water at concentrations of 80 ppm and 30 ppm, respectively. This was equivalent to approximately 2 mg/kg/day for enalapril and 5 mg/kg/day for BAY 85-3934. Systolic blood pressure and heart rate were determined using the tail-cuff method (a semi-automatic, non-invasive blood pressure monitor; TSE Systems), with three repeated measurements per animal.
(§1) EPO was measured in plasma samples taken from rodents using a commercial ELISA kit (R&D Systems), according to the manufacturer’s instructions. Relative plasma EPO levels were given in picograms per milliliter. In cynomolgus monkeys, EPO was measured using a combination anti-human EPO ELISAs (R&D Systems and Roche Diagnostics), with human EPO as a standard. Values were given as units per liter. For determination of plasma prorenin from rats, a commercial ELISA (Oxford Biomedical Research) was used according to the manufacturer’s instructions. Hemoglobin in rodent blood samples was determined on a Cell-Dyn 3700 apparatus (Abbott Diagnostics). BAY 85-3934 plasma concentrations were determined after protein precipitation with acetonitrile/ammonium acetate using an internal standard, followed by separation using HPLC/mass spectrometry.
As well as anemia and inflammation, CKD is often accompanied by hypertension, upon which treatment with rhEPO may have an unfavorable impact. The effects of BAY 85-3934 were compared with rhEPO in the remnant kidney (subtotal nephrectomy) model in rats.

male Wistar rats [2] = experiment: Comparison of oral BAY 85-3934 with rhEPO on erythropoiesis; format: in vivo, rat; conditions: BAY 85-3934 2.5 mg/kg once daily oral; rhEPO 25, 50, 100 IU/kg twice weekly s.c.; p<0.001 at day 30
Protocol: Male Wistar rats (240–340 g in body weight) were housed with five animals per cage for at least 1 week before experimentation. Blood samples from rats were collected under anesthesia (2% isoflurane in air) by puncturing the retro-orbital vein plexus with a glass capillary. In a repeat-dose, 26-day experiment, animals were administered vehicle or BAY 85-3934 at doses of 0.5 mg/kg, 1.25 mg/kg, 2.5 mg/kg, and 5 mg/kg. PCV was determined at baseline and at weekly intervals after centrifugation in a hematocrit capillary tube (Brand) for 10 min at full speed in a Haemofuge centrifuge (Heraeus). The number of reticulocytes in 5 µl blood was counted after staining with thiazol orange (Becton Dickinson) according to the manufacturer’s instructions by FACS analysis on a BD FACSCalibur system (Becton Dickinson). The efficacy of BAY 85-3934 (2.5 mg/kg, once-daily, oral) was also compared with that of rhEPO (25 IU/kg, 50 IU/kg, and 100 IU/kg, twice-weekly, s.c. injection). […] The efficacy of oral treatment with BAY 85-3934 was compared with that of standard rhEPO treatment in male Wistar rats.

cynomolgus monkeys = experiment: Comparison of BAY 85-3934 with rhEPO (single dose and 14-day repeat dose); format: in vivo, cynomolgus monkey
Protocol: Male and female cynomolgus monkeys (2.8–5.6 kg in body weight) were used, which were housed two per cage. Blood samples from conscious cynomolgus monkeys were taken by puncturing a superficial vein. In a 5-day, repeat-dose study of plasma EPO response, BAY 85-3934 was administered at doses of 0.5 mg/kg and 1.5 mg/kg at 0 h, 24 h, 48 h, 72 h, and 96 h. Blood samples were taken at 7 h, 31 h, 55 h, 79 h, 103 h, and 168 h. Erythropoietic parameters were also evaluated after a 2-week treatment period with s.c. administration of rhEPO (100 IU/kg twice weekly at days 1, 4, 8, and 11) and BAY 85-3934 (1.5 mg/kg) once daily.
as §1
In a further study, the efficacy of oral treatment with BAY 85-3934 was evaluated in comparison with rhEPO. Animals were administered a single dose of rhEPO (100 IU/kg) by s.c. injection or BAY 85-3934 (1.5 mg/kg, oral). After administration of rhEPO, plasma concentrations of rhEPO were more than 8-fold higher than the endogenous EPO levels induced by treatment with BAY 85-3934 (Fig. 3B). The area under the curve (AUC) of rhEPO was more than 6-fold higher than the AUC of endogenous EPO. […] Mean reticulocyte counts were 2-fold higher after treatment with rhEPO than after treatment with BAY 85-3934, but returned to baseline values 8 days after treatment cessation.

[3] = drinking water, 5 weeks: BAY 85-3934 sodium 80 ppm, enalapril 30 ppm
[4] = single dose rhEPO 100 IU/kg s.c. vs BAY 85-3934 1.5 mg/kg oral

## [Na+].[O-]c1c(-n2ccnn2)cnn1-c1cc(N2CCOCC2)ncn1 [BAY 85-3934 sodium]
Male Wistar rats [1]; [3]
  mean PCV: increasing
  mean systolic blood pressure compared with control: significantly reduced

## rhEPO: Human recombinant EPO (Ortho Biotech), s.c. injection
Male Wistar rats [2]
  hematocrit compared with the control group: significant increase
Cynomolgus monkeys; 14-day repeat dose
  mean reticulocyte counts relative to BAY 85-3934 treatment: 2 fold
  time after treatment cessation at which reticulocyte counts returned to baseline: 8 days
Cynomolgus monkeys; 14 days, rhEPO 100 IU/kg twice weekly s.c., BAY 85-3934 1.5 mg/kg once daily
  mean gains of hemoglobin and red blood cells, both treatments compared: almost completely congruent over time
Cynomolgus monkeys; [4]
  AUC of rhEPO relative to AUC of endogenous EPO: more than 6 fold
  plasma rhEPO concentration relative to endogenous EPO induced by BAY 85-3934: more than 8 fold
Male Wistar rats [1]; 5 weeks, tail-cuff
  systolic blood pressure compared with untreated controls: no difference
Male Wistar rats [1]; BAY 85-3934 2.5 and 5 mg/kg once daily, rhEPO 100 IU/kg twice weekly
  mean PCV: significantly increased
Male Wistar rats [1]; data not shown
  cardiac hypertrophy: manifested

## CCOC(=O)[C@H](CCc1ccccc1)N[C@@H](C)C(=O)N1CCC[C@H]1C(=O)O [enalapril, reference compound]
Male Wistar rats [1]; [3]
  mean PCV: remained unchanged
  mean systolic blood pressure compared with control: significant reduction
  plasma prorenin levels: reversion of plasma prorenin levels to normal values
